Entries after “also recorded” stand apart in the source; their conditions may differ.

Series [1] relates to HSP90 protein. The experiment in a line: STD 1H NMR spectroscopy binding to HSP90. The settings on record: compound to protein ratio approximately 100:1, 20 mM sodium phosphate buffer pH 6.7. How it is done: (§1) FIG. 9 is a STD 1H NMR Spectrum of Compound 1 and 20 with HSP90 protein. STD NMR experiments were performed at 19° C. on a Varian INNOVA 500 MHz spectrometer equipped with a triple resonance HCN cold probe. A 1D saturation transfer difference pulse sequence with internal subtraction via phase cycling was employed. Residual HDO signal was removed using a W5 WATERGATE pulse sequence, with a […] interpulse delay. On resonance irradiation of the protein was performed at −0.5 ppm, with off-resonance irradiation at 34 ppm. The irradiation power was (g/2p)B1=93 Hz applied through a train of 50 ms eburp1 pulses with a 1 ms delay between the pulses. The total presaturation time was 5.1 s. The relaxation delay was set to 0.1 s. A 30 ms spin-lock pulse with a strength of (g/2p)B1=4600 Hz was used to eliminate background protein signals. The total number of scans was between 1536, with a sweep width of 16 ppm. Spectra were multiplied by a 1 Hz exponential line-broadening function prior to Fourier transform. Compounds 1 (85 uM) and 20 (85 uM) and HSP90 protein (0.85 uM) in 20 mM sodium phosphate buffer (pH 6.7) was used. A) STD 1H NMR spectrum, B) preset reference, and C) STD reference-no saturation/difference.
as §1, with “STD” for “FIG. 9 is a STD 1H NMR Spectrum of Compound 1 and 20 with HSP90 protein. STD”, “employed (Mayer and Meyer, JACS, 2001, 123, 6108-6117).” for “employed.”, “delay (Liu et. al, J. Magn. Res., 1998, 132, 125).” for “delay.”, “1536-2048,” for “1536,”, “transform.” for “transform. Compounds 1 (85 uM) and 20 (85 uM) and HSP90 protein (0.85 uM) in 20 mM sodium phosphate buffer (pH 6.7) was used. A) STD 1H NMR spectrum, B) preset reference, and C) STD reference-no saturation/difference.”
The compound to protein ratio was fixed at approximately 100:1 in 20 mM sodium phosphate buffer (pH 6.7). Compound 20 was used as a reference compound to compare binding affinities of various compounds to HSP90 by comparing the relative intensity of NOE effects in the spectra of compounds 1 and 20 (see FIG. 9), compounds 2 and 20, compounds 5 and 20, compounds 13 and 20, and compounds 15 and 20 (near equamolar quantities of each) in the presence of HSP90 protein. Using the NOE signals for the imidazole proton, and comparing peak heights, the relative kd of the compound pairs were compared (see Meyer and Peters, T. Angew. Chem. Int. Ed. 2003, 42, 864). The kds of the compound pairs ranged from 1:1 to 8:1. These differences in binding affinities correlated to the potency of each respective compound's ability to rescue SCG neurons from NGF withdrawal as previously reported.

The subject of series [2] is HSP90. Kind of series: ATP-Sepharose interaction assay. It counts as binding. The settings on record: purified HSP90 pre-incubated with substance. As for the experimental part: Bound HSP90 was eluted HSP90 content was determined by immunoblotting.
ATP-Sepharose Interaction Assays. These were performed essentially as described in (Grenert et al., 1997). […] 25 ul of ATP-sepharose beads were added and the reactions were incubated for 30 min at 30° C. After thorough washing with ice-cold incubation buffer, bound proteins were eluted in sample buffer and HSP90 content was determined by immunoblotting.

Series [3] relates to HSP90. Kind of series: Photoaffinity-biotin labelling of PC12 protein extracts. In kind it is binding. The settings on record: 2 uM, 3 hours, UV 30 minutes, approximately 90 kDal band. How it is done:
HSP90 was also identified using the photoaffinity-biotinylated probe, compound 7. PC12 protein extracts were separated by SDS page. SDS was removed by incubation in 20% isopropanol and proteins were renatured by incubation in DTT and guanidine HCl. The gel was then incubated for 3 hours with 2 uM compound 7 and then photoactivated for 30 minutes using a UV crosslinker. Proteins were then transferred to nitrocellulose and biotin was detected with HRP-conjugated strepavidin.

The test system of series [4] is HSP70. The experiment in a line: HSP protein expression in PC12 / PC12rtTA cells (immunoblot). The settings on record: PC12rtTA cells infected with AdNRG, Adp75 or AdLacZ, 30 hours (FIG. 6A). It counts as cell-based. As for the experimental part: FIGS. 4A-4C are photographs of Western blots which illustrate that compound 1 treatment of PC12 cells induces expression of HSP70. A: PC12 cells were infected with 5 MOI of AdNRG (NRG) or AdLacZ (LacZ) as indicated. Cells were left untreated (0) or treated with 40 μM compound 1 at time of infection (30), one hour before lysis (1), or at both times (30+1). Cells were lysed thirty hours after infection, normalized for protein content, and analyzed for levels of phospho-Ser^63 c-Jun and total c-Jun, total JNK, IkBα, and NRAGE by immunoblotting. Lysates from untreated cells are indicated by ‘−’. B: PC12 cells were treated with the indicated concentrations of compound 1 for 18 hours and then lysed, normalized for protein content, and analyzed for levels of HSP70 by immunoblotting. Lysates from untreated cells are indicated by ‘−’. C: RNA isolated from PC12^rtTA cells treated with increasing concentrations of compound 1 for 18 hours was analyzed by rtPCR using primers specific to HSP70, HSP25, HSP90 or actin, as indicated. Experiments in Panel A and B were performed three times and that in Panel C was performed twice, with essentially identical results. D: PC12^rtTA cells were infected with AdNRG at 5 MOI, Adp75 at 50 MOI, or the control virus AdLacZ at 50 MOI. At time of infection, the cells were treated with increasing concentrations of compound 1, or with vehicle alone, as indicated. Thirty hours after infection, cells were lysed, normalized for protein content, and analyzed for levels of c-Jun phosphorylation, HSP70, HSP25, HSP40, NRAGE, p75NTR, JNK-1 and IkBα, as indicated.
FIGS. 6A, 6B and 6C are graphs and photographs of Western blots which illustrate that compound 1 analogues inhibit JNK activation and induce expression of HSP70. A: PC12^rtTA cells were infected with 5 MOI of AdNRG, 50 MOI of Adp75 or 50 MOI of the control virus AdLacZ. At time of infection, the cells were treated with an increasing concentrations of compound 1, or its analogues, compound 2, compound 3, compound 4, or with vehicle alone, as indicated. Thirty hours after infection, cells were lysed, normalized for protein levels, and analyzed for levels of HSP70, HSP25 and JNK-1, as indicated. B: PC12^rtTA cells were treated as above and after 40 hours infection were assayed for death using the lactate dehydrogenase (LDH) assay. Results are normalized relative to those obtained with 1% Triton, and represent the mean±standard deviation of a representative experiment performed in triplicate (*=P<0.025 relative to ‘0’ for each compound concentration). C: PC12^rtTA cells were infected with 50 MOI of LacZ or 5 MOI of AdNRG50 and at the time of infection, were treated with 40 μM compound 1, or its analogues, compound 2, compound 3, compound 4, or with vehicle alone, as indicated. Thirty hours after infection, cells were lysed, normalized for protein levels, and were analyzed for phosphorylated c-Jun, total c-Jun, NRAGE and JNK-1, as indicated. Experiments in Panel A and C were performed twice and that in B were performed twice, with essentially identical results.
To address this, SCG neurons were treated with compound 1 for 18 hours then lysed and assessed for HSP70 levels by immunoblot. Uninfected PC12rtTA cells were treated in a similar manner. […] To test if the accumulation of HSP70 induced by compound 1 reflected increased steady state levels of its mRNA, RNA was isolated from PC12 cells treated with increasing concentrations of compound 1 for 18 hours and the cell lysates subjected to semi-quantitative rtPCR. […] HSP protein levels were also assessed in PC12rtTA cells infected with AdLacZ, Adp75, or AdNRG, and at the same time, exposed to compound 1.

Series [5] concerns PC12^rtTA cells. The experiment in a line: p75NTR- or NRAGE-induced cell death of PC12rtTA cells (LDH release assay). In kind it is cell-based. The settings on record: increasing concentrations, 40 hours, LDH. How it is done:
FIGS. 2A and 2B are graphs showing that compound 1 inhibits p75NTR or NRAGE induced JNK activation and cell death. Compound 1 inhibits NRAGE (A) or p75NTR (B) mediated cell death. PC12^rtTA cells were infected with recombinant adenoviruses expressing full-length NRAGE (AdNRG) at 5 MOI, full length p75NTR (Adp75) at 50 or 100 MOI, or the control protein β-galactosidase (AdLacZ) (at 5 MOI in (A) and 50 MOI in (B)). At time of infection, the cells were treated with an increasing concentration of compound 1, or with vehicle alone, as indicated. After 40 hours, cells were assayed for death using the lactate dehydrogenase (LDH) assay; untreated cells (Un) and cells treated with 1% Triton X-100 (Tx) were used to delineate the output range of the assay. Results are normalized relative to those obtained with 1% Triton (Tx), and represent the mean±standard deviation of a representative experiment performed in triplicate (*=P<0.005 relative to no compound 1).
PC12^rtTA were infected with adenoviruses encoding p75NTR (Adp75), NRAGE (AdNRG), or as a control, LacZ (AdLacZ), and were concurrently exposed to increasing concentrations of compound 1 for a period of 40 hours. Cell death was assessed using an LDH release assay. […] Treatment with 40 μM compound 1 reduced p75NTR- or NRAGE-induced cell death by greater than 90%.
(§2) Cell culture, infection, transfection and immunoblotting. Sympathetic neurons were maintained and deprived of NGF as previously described (Bamji et al., 1998; Ma et al., 1992). PC12^rtTA cells were maintained and infected as previously described (Majdan et al., 1997; Salehi et al., 2002); for NRAGE, […] doxycycline was added to all plates at time of infection. Wildtype and HSF1 nullizygous immortalized mouse embryonic fibroblasts (MEFs) were maintained in DMEM containing 10% fetal calf serum, 1 μM β-mercaptoethanol, 1% non-essential amino acids, 1% L-glutamine, 1% antimycotic solution and 1% sodium pyruvate (all from GibcoBRL). Sympathetic neuron survival was assessed using the MTS assay according to the manufacturer's instructions (Promega). Analysis of PC12 cell death was determined using a lactate dehydrogenase (LDH) assay (Roche) as per the manufacturer's instructions. Transfections using plasmids or RNAi were performed using Lipofectamine 2000. Immunoblotting was performed as previously described (Majdan et al., 1997; Salehi et al., 2002).

Series [6] has as its system SCG neurons. Kind of series: NGF-withdrawal induced cell death of SCG neurons (MTS assay). Particulars: SCG neurons withdrawn from NGF, 48 hours. It counts as cell-based, rat. How it is done: FIG. 1 is a graph showing that compound 1 inhibits NGF-withdrawal induced cell death. Cultures of rat SCG neurons (see Materials and Methods) initially maintained in 10 ng/ml of NGF were withdrawn from NGF and maintained in media containing compound 1 at the concentrations indicated for 48 hours. Cellular viability was assayed using an MTS assay. (*=P<0.01 relative to no compound 1). Experiments were performed three times with identical results.
Survival of neonatal primary sympathetic neurons is dependent on trophic support provided by Neuronal Growth Factor (NGF) (reviewed in (Young et al., 2004)).
as §2
(In general: Tetrazolium dyes change colour on reduction, which living cells bring about.)

For series [7] the following is noted: full body radiography. How it is done: The induction of HSP70 was investigated in vivo by the treatment of rats with a single dose of Na-19 (SC, 30 mg/kg).

Consider `CC(C)(C)c1ccc(-c2cn3nc(S(N)(=O)=O)sc3n2)cc1` [Compound 15], for which the “binding to HSP90 protein by STD 1H NMR” value in series [1] is “directly bind”.
For the molecule `Nc1ncnc2c1ncn2[C@@H]1O[C@H](COP(=O)(O)OP(=O)(O)OP(=O)(O)O)[C@@H](O)[C@H]1O` [ATP, reference compound], in series [2], the “binding of HSP90 to gATP-Sepharose” value is reported as “strongly inhibited”.
With `COCCOCCOc1ccc(-c2cn3nc(S(N)(=O)=O)sc3n2)cc1` [Compound 13], in series [1], the “binding to HSP90 protein by STD 1H NMR” value is recorded as “directly bind”.
On the same count and under the same terms, then `CC(=O)N1CCN(CC[S+]([O-])c2nn3cc(-c4ccccc4)nc3s2)CC1` (centres unmarked) [Compound 20], with “Positive; also recorded: directly bind”.
On the same count and under the same terms, in the case of `NS(=O)(=O)c1nn2cc(-c3ccc(O)cc3)nc2s1` [Compound 5] it was “directly bind”.
For the molecule `[N-]=[N+]=Nc1c(F)c(F)c(-c2cn3nc(S(=O)(=O)CCNC(=O)CCCCC4SC[C@H]5NC(=O)N[C@@H]45)sc3n2)c(F)c1F` (some centres unmarked) [Compound 7], in series [3], the photoaffinity labelled band result is reported as “consistent with binding to HSP90”.
On to `NS(=O)(=O)c1nn2cc(-c3ccc(OCC(=O)O)cc3)nc2s1` [Compound 3], for which, in series [4], the HSP70 production result is “failed to induce HSP70”. The “protection from Adp75- or AdNRG-induced cell death” value in series [5] is recorded as “do not protect”. The “protection from NGF-withdrawal induced cell death” value in series [6] was “do not protect”.
For the molecule `NS(=O)(=O)c1nn2cc(-c3ccc4c(c3)OCCCO4)nc2s1` [Compound 12], the “binding to HSP90 protein by STD 1H NMR” value in series [1] is reported as “directly bind”.
As for `NS(=O)(=O)c1nn2cc(-c3ccc(NC(=O)c4ccccc4)cc3)nc2s1` [Compound 4], in series [4], the HSP70 production result is given as “failed to induce HSP70”. Besides, the “protection from Adp75- or AdNRG-induced cell death” value in series [5] was “do not protect”. For the same molecule, the “protection from NGF-withdrawal induced cell death” value in series [6] is given as “do not protect”.
As for `[NH-]S(=O)(=O)c1nn2[14cH]c(-c3ccc(-c4cccc(C(F)(F)F)c4)cc3)nc2s1.[Na+]` [[^14C]—Na-19, [5-^14C]-6-(3′-(trifluoromethyl)biphenyl-4-yl)imidazo[2,1-b]-1,3,4-thiadiazole-2-sulfonamide Mono Sodium Salt], the “radioactivity in sciatic nerve” value in series [7] is given as “significant, time dependent, radioactivity in sciatic nerve”.

The values are drawn from US20090179638A1, “ASSAY FOR IDENTIFYING INHIBITORS OF NEURONAL APOPTOTIC PATHWAYS” (AEGERA THERAPEUTICS INC., priority 2006, published 2009).
